From patent publication US10653698B2, “Methods of improving myocardial performance in Fontan patients using udenafil compositions” (priority 2014, dated 2020)

Tests used:
[1] = system: adolescents with single ventricle physiology after Fontan palliation; assay: Echocardiographic assessment of ventricular performance (blood pool MPI, tissue Doppler MPI, average isovolumic contraction and relaxation); assay type: in vivo, human; set-up: Average Isovolumic Contraction, Baseline measurement / Average Isovolumic Contraction, Follow-up measurement: unit not given here; details: for Average Isovolumetric Relaxation, Follow-up measurement / Average Isovolumetric Relaxation, Baseline measurement: in ms (unit assumed)
Source text: Ventricular performance and cardiac contractility are important measurements that can reveal impairment of cardiovascular health before overt heart failure is present. Ventricular performance can be assessed using echocardiographic methods and quantified via a myocardial performance index or MPI. MPI is an index that combines systolic and diastolic function. Specifically, MPI is defined as the sum of isovolumic contraction time and isovolumic relaxation time divided by the ejection time.
Various versions of MPI are known in the art, and each version of MPI may be used to assess ventricular performance. For instance, MPI indices may include but are not limited to blood pool MPI, tissue doppler MPI, average isovolumetric contraction, and average isovolumetric relaxation.
The primary outcome of ventricular performance with assessed using echocardiographic methods and measured according to a myocardial performance Index (MPI). The MPI is a ventricular geometry-independent measure of combined systolic and diastolic ventricular performance (Charles S. Kleinman et al, 2008—Health and Fitness). It is obtained by indexing the sum of isovolumetric contraction and relaxation time to ejection time.
Table 18 summarizes results for the key outcome from the Echocardiographic Assessment of Ventricular Performance—Blood Pool MPI. Out of the 30 subjects enrolled in the treatment arms of the trial, 27 subjects had paired measurements. The structure of the table is similar to the one for exercise variables.
Tables 19-21 and FIGS. 9-15 report similar results for three other versions of MPI: Tissue Doppler MPI, and Average Isovolumetric Contraction and Relaxation.

[2] = Pharmacokinetic testing, non-compartmental analysis of plasma concentrations; assay type: in vivo, human
Method: NONMEM version 7.2, R, PDxPOP® 5, Xpose, and Phoenix WinNonlin was used for the pharmacokinetic analysis.
Pharmacokinetic analysis was performed on Fontan patients receiving udenafil. […] Plasma concentrations were determined at various time points and non-compartmental analysis was performed in patients and stratified by dosing regimens.

[3] = cited from earlier work
ED patients = details: 50 mg or 75 mg once daily for 12 wk; cited from earlier work
[4] = 87.5 mg q12 h and 125 mg q24 h cohorts compared to 37.5 mg q12 h or q24 h cohorts

Compound: CCCOc1ccc(S(=O)(=O)NCCC2CCCN2C)cc1-c1nc2c(CCC)nn(C)c2c(=O)[nH]1 (stereo not shown) [udenafil]
- Average Isovolumetric Relaxation, Difference, FU − BL ([1]; 37.5 mg daily, N 5): 9.0 ± 11.5
- Average Isovolumic Contraction, Difference, FU − BL ([1]; 37.5 mg daily, N 5): −3.5 ± 50.0
- Average Isovolumic Contraction, Follow-up measurement ([1]; 37.5 mg daily, N 5): 86.4 ± 22.7
- Blood Pool MPI, Difference, FU − BL ([1]; 37.5 mg daily, N 5): −0.052 ± 0.166
- Blood Pool MPI, Follow-up measurement ([1]; 37.5 mg daily, N 5): 0.504 ± 0.187
- Tissue Doppler MPI, Difference, FU − BL ([1]; 37.5 mg daily, N 5): −0.052 ± 0.398
- Tissue Doppler MPI, Follow-up measurement ([1]; 37.5 mg daily, N 5): 0.637 ± 0.206
- Average Isovolumetric Relaxation, Follow-up measurement ([1]; 37.5 mg daily, N 5): 94.0 ± 26.7
- Average Isovolumic Contraction, Baseline measurement ([1]; 37.5 mg daily, N 6): 99.2 ± 50.7
- Blood Pool MPI, Baseline measurement ([1]; 37.5 mg daily, N 6): 0.537 ± 0.304
- Tissue Doppler MPI, Baseline measurement ([1]; 37.5 mg daily, N 6): 0.701 ± 0.417
- Average Isovolumetric Relaxation, Baseline measurement ([1]; 37.5 mg daily, N 6): 83.8 ± 16.1
- Average Isovolumetric Relaxation, Difference, FU − BL ([1]; 37.5 mg twice daily, N 6): 0.8 ± 21.2
- Average Isovolumic Contraction, Baseline measurement ([1]; 37.5 mg twice daily, N 6): 109.4 ± 51.1
- Average Isovolumic Contraction, Difference, FU − BL ([1]; 37.5 mg twice daily, N 6): −5.8 ± 25.7
- Average Isovolumic Contraction, Follow-up measurement ([1]; 37.5 mg twice daily, N 6): 103.6 ± 32.4
- Blood Pool MPI, Baseline measurement ([1]; 37.5 mg twice daily, N 6): 0.496 ± 0.150
- Blood Pool MPI, Difference, FU − BL ([1]; 37.5 mg twice daily, N 6): −0.003 ± 0.102
- Blood Pool MPI, Follow-up measurement ([1]; 37.5 mg twice daily, N 6): 0.494 ± 0.087
- Tissue Doppler MPI, Baseline measurement ([1]; 37.5 mg twice daily, N 6): 0.818 ± 0.361
- Tissue Doppler MPI, Difference, FU − BL ([1]; 37.5 mg twice daily, N 6): −0.089 ± 0.142
- Tissue Doppler MPI, Follow-up measurement ([1]; 37.5 mg twice daily, N 6): 0.729 ± 0.230
- Average Isovolumetric Relaxation, Baseline measurement ([1]; 37.5 mg twice daily, N 6): 100.8 ± 32.3
- Average Isovolumetric Relaxation, Follow-up measurement ([1]; 37.5 mg twice daily, N 6): 101.6 ± 40.0
- Average Isovolumetric Relaxation, Difference, FU − BL ([1]; 87.5 mg daily, N 6): −6.9 ± 10.1
- Average Isovolumic Contraction, Baseline measurement ([1]; 87.5 mg daily, N 6): 122.4 ± 36.7
- Average Isovolumic Contraction, Difference, FU − BL ([1]; 87.5 mg daily, N 6): −7.4 ± 26.5
- Average Isovolumic Contraction, Follow-up measurement ([1]; 87.5 mg daily, N 6): 115.0 ± 32.9
- Blood Pool MPI, Baseline measurement ([1]; 87.5 mg daily, N 6): 0.588 ± 0.158
- Blood Pool MPI, Difference, FU − BL ([1]; 87.5 mg daily, N 6): −0.076 ± 0.144
- Blood Pool MPI, Follow-up measurement ([1]; 87.5 mg daily, N 6): 0.512 ± 0.163
- Tissue Doppler MPI, Baseline measurement ([1]; 87.5 mg daily, N 6): 0.804 ± 0.118
- Tissue Doppler MPI, Difference, FU − BL ([1]; 87.5 mg daily, N 6): −0.089 ± 0.131
- Tissue Doppler MPI, Follow-up measurement ([1]; 87.5 mg daily, N 6): 0.716 ± 0.142
- Average Isovolumetric Relaxation, Baseline measurement ([1]; 87.5 mg daily, N 6): 93.4 ± 11.0
- Average Isovolumetric Relaxation, Follow-up measurement ([1]; 87.5 mg daily, N 6): 86.4 ± 15.3
- Average Isovolumetric Relaxation, Difference, FU − BL ([1]; 87.5 mg twice daily, N 4): 5.2 ± 12.6
- Average Isovolumic Contraction, Baseline measurement ([1]; 87.5 mg twice daily, N 4): 84.1 ± 20.3
- Average Isovolumic Contraction, Difference, FU − BL ([1]; 87.5 mg twice daily, N 4): 4.1 ± 12.1
- Tissue Doppler MPI, Baseline measurement ([1]; 87.5 mg twice daily, N 4): 0.540 ± 0.019
- Tissue Doppler MPI, Difference, FU − BL ([1]; 87.5 mg twice daily, N 4): 0.060 ± 0.068
- Average Isovolumetric Relaxation, Baseline measurement ([1]; 87.5 mg twice daily, N 4): 72.3 ± 10.5
- Blood Pool MPI, Baseline measurement ([1]; 87.5 mg twice daily, N 5): 0.548 ± 0.136
- Blood Pool MPI, Difference, FU − BL ([1]; 87.5 mg twice daily, N 5): −0.118 ± 0.090
- Average Isovolumic Contraction, Follow-up measurement ([1]; 87.5 mg twice daily, N 6): 83.8 ± 26.4
- Blood Pool MPI, Follow-up measurement ([1]; 87.5 mg twice daily, N 6): 0.410 ± 0.078
- Tissue Doppler MPI, Follow-up measurement ([1]; 87.5 mg twice daily, N 6): 0.638 ± 0.168
- Average Isovolumetric Relaxation, Follow-up measurement ([1]; 87.5 mg twice daily, N 6): 82.4 ± 11.4
- Average Isovolumetric Relaxation, Difference, FU − BL ([1]; 125 mg daily, N 5): −5.4 ± 11.1
- Average Isovolumic Contraction, Difference, FU − BL ([1]; 125 mg daily, N 5): −8.0 ± 24.6
- Average Isovolumic Contraction, Follow-up measurement ([1]; 125 mg daily, N 5): 150.5 ± 60.5
- Blood Pool MPI, Difference, FU − BL ([1]; 125 mg daily, N 5): −0.054 ± 0.180
- Blood Pool MPI, Follow-up measurement ([1]; 125 mg daily, N 5): 0.696 ± 0.202
- Tissue Doppler MPI, Difference, FU − BL ([1]; 125 mg daily, N 5): −0.074 ± 0.141
- Tissue Doppler MPI, Follow-up measurement ([1]; 125 mg daily, N 5): 0.822 ± 0.271
- Average Isovolumetric Relaxation, Follow-up measurement ([1]; 125 mg daily, N 5): 96.8 ± 17.4
- Average Isovolumic Contraction, Baseline measurement ([1]; 125 mg daily, N 6): 152.4 ± 64.4
- Blood Pool MPI, Baseline measurement ([1]; 125 mg daily, N 6): 0.728 ± 0.155
- Tissue Doppler MPI, Baseline measurement ([1]; 125 mg daily, N 6): 0.861 ± 0.323
- Average Isovolumetric Relaxation, Baseline measurement ([1]; 125 mg daily, N 6): 99.5 ± 25.0
- Average Isovolumetric Relaxation, Difference, FU − BL ([1]; All subjects, N 26): 0.1 ± 14.4
- Average Isovolumic Contraction, Difference, FU − BL ([1]; All subjects, N 26): −4.6 ± 28.3
- Tissue Doppler MPI, Difference, FU − BL ([1]; All subjects, N 26): −0.056 ± 0.198
- Blood Pool MPI, Difference, FU − BL ([1]; All subjects, N 27): −0.059 ± 0.134
- Average Isovolumic Contraction, Baseline measurement ([1]; All subjects, N 28): 115.6 ± 50.5
- Average Isovolumic Contraction, Follow-up measurement ([1]; All subjects, N 28): 107.1 ± 41.3
- Blood Pool MPI, Follow-up measurement ([1]; All subjects, N 28): 0.517 ± 0.165
- Tissue Doppler MPI, Baseline measurement ([1]; All subjects, N 28): 0.760 ± 0.299
- Tissue Doppler MPI, Follow-up measurement ([1]; All subjects, N 28): 0.707 ± 0.201
- Average Isovolumetric Relaxation, Baseline measurement ([1]; All subjects, N 28): 91.2 ± 22.2
- Average Isovolumetric Relaxation, Follow-up measurement ([1]; All subjects, N 28): 92.0 ± 23.8
- Blood Pool MPI, Baseline measurement ([1]; All subjects, N 29): 0.581 ± 0.197
- Improvement in Blood Pool MPI ([1]; some patients, baseline to day 5): ≤ 21.5%
- AUCτ [2, 4]: significantly increased
- Cmax [2, 4]: significantly increased
- AUC0-24 ([2]; 87.5 mg q12 h cohort among all regimens tested): highest
- Cmax ([2]; 87.5 mg q12 h cohort compared to its q24 h counterpart): increased
- AUC0-24 ([2]; 125 mg q24 h cohort compared to 37.5 mg q24 h cohort): significantly increased
- ke, T1/2, or Tmax ([2]; among all 5 tested dosing regimens): no statistically significant difference
- CL/F or V/F ([2]; among dosing regimens, except between 37.5 mg q24 h and 87.5 mg q12 h): No significant difference
- T1/2 ([3]; in vivo): 11 to 13 h
- Tmax ([3]; in vivo): 1.0 to 1.5 h
- half-life ([3]; in vivo): 7.3 to 12.1 h
- time to steady state ([3]; multiple dosing, previous studies): 5 days
- erectile function (ED patients): significantly improved
